Measured values published in the supplement of paper PMC10307832.

Assays:
Assay in all cases: relative viability (nuclei count vs DMSO), 5 days (fraction); higher = more cells survive
Serdemetan + Decitabine = compound: c1ccc2c(CCNc3ccc(Nc4ccncc4)cc3)c[nH]c2c1 [Serdemetan] + Nc1ncn([C@H]2C[C@H](O)[C@@H](CO)O2)c(=O)n1 [Decitabine] (partner 2 µM)
In short: (§1)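 Nuclei were stained with Hoechst during a one-step fixation (final 0.05% Triton X-100, 1% formaldehyde, 1 ug/ml Hoechst) carried out 5 days after dosing, then counted on 4× images. The cells, lung cancer lines in 1536-well plates, had been dosed by pin tool the day after seeding with one drug alone or a fixed anchor-drug dose plus five library-drug doses (not always all listed) in √10 steps. Relative viability is the nuclei count in treated wells divided by that in vehicle wells, and each value is the median of duplicate plates.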

Serdemetan + OSI-027 = compound: c1ccc2c(CCNc3ccc(Nc4ccncc4)cc3)c[nH]c2c1 [Serdemetan] + COc1cccc2cc(-c3nc([C@H]4CC[C@H](C(=O)O)CC4)n4ncnc(N)c34)[nH]c12 [OSI-027] (partner 0.5 µM)
In short: as §1

Serdemetan + Olaparib = compound: c1ccc2c(CCNc3ccc(Nc4ccncc4)cc3)c[nH]c2c1 [Serdemetan] + O=C(c1cc(Cc2n[nH]c(=O)c3ccccc23)ccc1F)N1CCN(C(=O)C2CC2)CC1 [Olaparib] (partner 8 µM)
In short: as §1

Selisistat + Pemetrexed = compound: C1CC(C2=C(C1)C3=C(N2)C=CC(=C3)Cl)C(=O)N [Selisistat] + Nc1nc2[nH]cc(CCc3ccc(C(=O)N[C@@H](CCC(=O)O)C(=O)O)cc3)c2c(=O)[nH]1 [Pemetrexed] (partner 0.2 µM)
In short: as §1

Cell Line | relative viability (Serdemetan + Decitabine; first compound 0.04 µM) | relative viability (Serdemetan + Decitabine; first compound 0.1265 µM) | relative viability (Serdemetan + Decitabine; first compound 0.4 µM) | relative viability (Serdemetan + Decitabine; first compound 1.265 µM) | relative viability (Serdemetan + Decitabine; first compound 4 µM) | relative viability (Serdemetan + OSI-027; first compound 0.04 µM) | relative viability (Serdemetan + OSI-027; first compound 0.1265 µM) | relative viability (Serdemetan + OSI-027; first compound 0.4 µM) | relative viability (Serdemetan + OSI-027; first compound 4 µM) | relative viability (Serdemetan + Olaparib; first compound 0.04 µM) | relative viability (Serdemetan + Olaparib; first compound 0.1265 µM) | relative viability (Serdemetan + Olaparib; first compound 0.4 µM) | relative viability (Serdemetan + Olaparib; first compound 1.265 µM) | relative viability (Serdemetan + Olaparib; first compound 4 µM) | relative viability (Selisistat + Pemetrexed; first compound 0.4 µM) | relative viability (Selisistat + Pemetrexed; first compound 1.265 µM) | relative viability (Selisistat + Pemetrexed; first compound 4 µM) | relative viability (Selisistat + Pemetrexed; first compound 12.65 µM) | relative viability (Selisistat + Pemetrexed; first compound 40 µM) | relative viability (Serdemetan + OSI-027; first compound 1.265 µM)
SK-LU-1 | 0.581 | 0.58 | 0.691 | 0.393 | 0.593 | 0.424 | 0.405 | 0.405 | 0.246 | 0.463 | 0.369 | 0.479 | 0.308 | 0.365 | 0.985 | 0.981 | 1.01 | 0.967 | 1.03 | –
ChaGo-K-1 | 0.488 | 0.42 | 0.421 | 0.266 | 0.303 | 0.546 | 0.611 | 0.539 | 0.367 | 0.401 | 0.269 | 0.258 | 0.168 | 0.257 | 0.237 | 0.247 | 0.257 | 0.36 | 0.231 | 0.33
COR-L 105 | 0.65 | 0.646 | 0.574 | 0.52 | 0.626 | 0.749 | 0.649 | 0.452 | 0.71 | 0.774 | 0.677 | 0.542 | 0.603 | 0.565 | 1.16 | 1.07 | 1.16 | 0.869 | 1.1 | 0.722
NCI-H1975 | 0.421 | 0.369 | 0.306 | 0.262 | 0.34 | 0.851 | 0.753 | 0.775 | 0.711 | 0.843 | 0.754 | 0.742 | 0.748 | 0.75 | 0.275 | 0.283 | 0.3 | 0.278 | 0.316 | –
NCI-H1993 | 0.696 | 0.593 | 0.542 | 0.577 | 0.56 | 0.552 | 0.614 | 0.665 | 0.533 | 0.982 | 0.969 | 1.18 | 1.01 | 0.778 | 0.581 | 0.711 | – | 0.554 | 0.592 | 0.521
RERF-LC-KJ | 0.785 | 0.636 | 0.722 | 0.489 | 0.605 | 0.589 | 0.711 | 0.442 | 0.401 | 1.03 | 0.872 | 0.889 | 0.747 | 0.835 | 0.482 | 0.466 | 0.467 | 0.466 | 0.468 | 0.498
NCI-H23 | 0.303 | 0.308 | 0.223 | – | 0.302 | 0.636 | 0.702 | 0.607 | 0.531 | 0.314 | 0.364 | 0.298 | – | 0.231 | 0.649 | 0.742 | – | 0.619 | 0.595 | 0.43
HCC-366 | 0.209 | 0.154 | 0.0922 | 0.0502 | 0.0773 | 0.87 | 0.858 | 0.733 | 0.122 | 0.22 | 0.0954 | 0.0557 | 0.0411 | 0.0631 | 0.136 | 0.184 | 0.193 | 0.146 | 0.164 | 0.173
EMC-BAC-2 | 0.882 | 0.912 | 0.972 | 0.879 | 0.823 | 0.368 | 0.383 | 0.392 | 0.355 | 0.447 | 0.446 | 0.473 | 0.338 | 0.403 | 0.406 | 0.422 | 0.522 | 0.331 | 0.352 | 0.268
NCI-H2405 | 0.707 | 0.766 | 0.756 | 0.674 | 0.625 | 0.591 | 0.602 | 0.657 | 0.594 | 0.809 | 0.829 | 0.86 | 0.795 | 0.779 | 0.984 | 1.04 | – | 1.01 | 1.04 | 0.622
NCI-H358 | 0.186 | 0.234 | 0.221 | 0.18 | 0.195 | 0.725 | 0.816 | 0.969 | 0.536 | 0.582 | 0.507 | 0.626 | 0.595 | 0.464 | 0.182 | 0.221 | 0.158 | 0.177 | 0.19 | 0.487
NCI-H1944 | 0.493 | 0.409 | 0.384 | 0.269 | 0.295 | 0.435 | 0.42 | 0.394 | 0.379 | 0.385 | 0.393 | 0.286 | 0.228 | 0.288 | 0.634 | 0.575 | 0.458 | 0.674 | 0.584 | 0.331
NCI-H2342 | 0.753 | 0.776 | 0.643 | 0.531 | 0.475 | 0.66 | 0.648 | 0.731 | 0.512 | 0.621 | 0.445 | 0.416 | 0.236 | 0.334 | 0.806 | 0.756 | 0.677 | 0.77 | 0.769 | 0.666
EPLC-272H | 0.384 | 0.362 | 0.341 | 0.338 | 0.256 | 0.285 | 0.355 | 0.296 | 0.272 | 0.837 | 0.883 | 0.714 | 0.676 | 0.641 | 0.257 | 0.315 | 0.317 | 0.336 | 0.284 | 0.248
NCI-H1915 | 0.266 | 0.259 | 0.253 | 0.231 | 0.239 | 0.683 | 0.688 | 0.586 | 0.566 | 0.238 | 0.242 | 0.223 | 0.208 | 0.24 | 0.494 | 0.559 | 0.495 | 0.462 | 0.489 | 0.362
NCI-H596 | 0.965 | 0.94 | 0.772 | 0.636 | 0.588 | 0.888 | 0.699 | 0.614 | 0.519 | 0.694 | 0.657 | 0.517 | 0.532 | 0.475 | 0.514 | 0.546 | 0.485 | 0.475 | 0.478 | 0.494
